Experimental findings from publication PMC5488875 (Anticancer research, 2017) are described below.

Usually EC50 stands for the midpoint of the concentration-response curve. Lower therefore signals greater potency.

In data set [1] the test system is HT-29 colon cancer cell line. Description: ROS assay. It is filed as cell-based. The conditions noted are these: HT-29, 100 μM (highest concentration).
In data set [2] the test system is HeLa cervical cancer cell line. Kind of data set: ROS assay. The class given is cell-based. The conditions noted are these: 100 μM (highest concentration).
The test system of data set [3] is MDA-MB-231 cells. Kind of data set: ROS assay. It is filed as cell-based.
The subject of data set [4] is MDA-MB-231 cells.

In the case of `COC[C@H]1OC(=O)c2coc3c2[C@@]1(C)C1=C(C3=O)[C@@H]2CCC(=O)[C@@]2(C)C[C@H]1OC(C)=O` [wortmannin], the ROS inducing effect entry in data set [1] is recorded as “Strong ROS inducing effect”; in data set [2] it was “Strong ROS inducing effect”; in data set [3] (MDA-MB-231 breast cancer cells), “potent ROS inducing agent”. For the same compound, the “difference in concentration to exhibit the same ROS effect in the other two cancer cell lines” value in data set [3] (MDA-MB-231 vs HeLa and HT-29) worked out at 1000 x.

In data set [4], acetylwortmannolone [Compound 1] yielded an EC50 of 8.93 µM. In data set [3] (MDA-MB-231 cells, concentration not given), the “ROS (reactive oxygen species fold increase)” value is listed as 1.58 fold increase.
